This passage reports EC50 results from patent US20260325661A1, “ANTIBODY-CONJUGATED IMMUNO-ACTIVATING SMALL MOLECULE COMPOUND, AND USE” (SHENZHEN CONJUGENIX PHARMACEUTICAL TECHNOLOGY CO., LTD, priority 2023, published 2026).

Read-outs that look alike come from different tables or passages of the source.

The test system of the assay is human peripheral blood mononuclear cells (PBMCs). The experiment in a line: ELISA assay of immunocyte activator: induction of IFN-γ in human PBMCs. In kind it is cell-based. Particulars: 24 h, 37 °C, read-out: EC50 IFN-γ ratio (inducing human PBMCs to produce IFN-γ). On the procedure:
The immune activity of each compound is represented by the function of inducing human peripheral blood mononuclear cells (PBMCs) to produce the immune cytokine IFN-γ by, and the EC50 values thereof are shown in Table 3.
• 1) Peripheral blood samples from healthy human volunteer were collected into heparin anticoagulant tubes to reach 5 mL of fresh blood, and PBS was added at a ratio of 1:1 to dilute the blood (2 mL+2 mL in conventional blood collection tubes). • 2) 5 mL of lymphocyte separation medium was put in a 15 mL sterile centrifuge tube for use. • 3) The diluted blood was aspirated and slowly added from 1 cm above the separation medium along the tube wall, so that the diluted blood overlaid the separation medium and formed a distinct interface therewith. • 4) The centrifuge tube was centrifuged at 2000 rpm at room temperature for 20 min. Now five layers formed in the centrifuge tube: the top layer was plasma layer, and the layer between the plasma layer and the lymphocyte separation medium was the lymphocyte layer as a white film. • 5) The mononuclear cell layer as a white film in the middle was aspirated carefully and mononuclear cells were aspirated as many as possible. The mononuclear cells were washed by more than 5 volumes of PBS twice, and each time, the mononuclear cells were centrifuged at 1500 rpm for 10 min. • 6) The supernatant was removed, then 1 mL of 1640 medium was added and mixed uniformly. A small amount of the mixture was taken for cell counting.
The prepared PBMCs were plated in a 96-well plate (Costar, 3894) (2×10^5 cells per well). Each compound in Table 3 was taken and added into the wells with plated cells at ten concentrations with uniform gradient distribution (0.0001-10 μM, diluted with […] medium containing […]).
Background: In an ELISA, binding on a coated surface is turned into a signal by an enzyme label.

[1] abbreviates: Homo sapiens, PBMC, no pretreatment marked.
Setting [2] is: Homo sapiens, PBMC, pH 5, 24 h, Note d: sample pretreated by hydrolysis, acetate buffer pH 5, 37 °C, 72 h.
Setting [3] is: Homo sapiens, PBMC, pH 6, 24 h, Note b: sample pretreated with equimolar glutathione, PBS pH 6, 37 °C.
Where [4] appears, read: Note a: sample pretreated with human liver microsomal enzyme, 2 h.
Where [5] appears, read: Homo sapiens, PBMC, Note a: sample pretreated with human liver microsomal enzyme, 2 h.

For `COCCOc1nc(N)c2[nH]c(=O)n(Cc3ccc(CNC(=O)CCC(=O)NC(CCCCc4cnnn4CCOCCOCCOCCN=C=S)C(=O)NCCCC(=O)Nc4ccc(C#CC#N)cc4)cc3)c2n1` (centres unmarked) [Compound K40], the EC50 under setting [1] worked out at 1 nM. With `CCCCOc1nc(N)c2c(n1)n(CCCc1cn(CCOCCOCCOCCNC(=O)CCN3C(=O)C=CC3=O)nn1)c(=O)n2COC(=O)OC(C)C` [Compound K41], the EC50 under setting [2] turned out to be 2 nM. `CC[C@@]1(O)C(=O)OCc2c1cc1n(c2=O)Cc2c-1nc1cc(F)c(C)c3c1c2[C@@H](NC(=O)CNC(=O)OCn1c(=O)n(Cc2ccc(CNC(=O)CCc4cn(CCOCCOCCOCCNC(=O)CCN5C(=O)C=CC5=O)nn4)cc2)c2nc(OCCOC)nc(N)c21)CC3` [Compound K42]: the EC50 (Homo sapiens, PBMC, Note d: sample pretreated by hydrolysis, acetate buffer pH 5, 37 °C, 72 h) is 7 nM. For `C=C(COC(=O)n1c(=O)n(CCCc2cn(CCOCCOCCOCCOCCN=[N+]=[N-])nn2)c2nc(OCCCC)nc(N)c21)C(=O)OCC` [Compound K44], the EC50 under setting [3] turned out to be 2 nM. As to `C=C(COC(=O)n1c(=O)n(Cc2ccc(CNC(=O)CCc3cn(CCOCCOCCOCCOCCN=[N+]=[N-])nn3)cc2)c2nc(OCCOC)nc(N)c21)C(=O)OCC` [Compound K45], the EC50 under setting [3] was 10 nM.

Take `C=CC(=O)Nc1cc(Nc2nccc(-c3cn(C)c4ccccc34)n2)c(OC)cc1N(C)CCN(C)CCCCCCNC(=N)C(CCCCc1cn(CCOCCOCCOCCN=C=S)nn1)NC(=O)CCC(=O)NCc1ccc(Cn2c(=O)[nH]c3c(N)nc(OCCOC)nc32)cc1` (centres unmarked) [Compound K46]: the EC50 under setting [1] worked out at 90 nM. On the same count and under the same terms, the result for `CCCCOc1nc(N)c2[nH]c(=O)n(Cc3ccc(NC(=S)Nc4sc5c(c4C(=O)NC(CCCCN=C=S)C(=O)NCCOCCOCCOCCOCCNC(=O)CCC(=O)N4Cc6ccccc6C#Cc6ccccc64)CCCC5)cc3)c2n1` (centres unmarked) [Compound K47] reads 150 nM. On to `COCCOc1nc(N)c2[nH]c(=O)n(Cc3ccc(CNC(=O)CCC(=O)NC(CCCCc4cn(CCOCCOCCOCCN=C=S)nn4)C(=O)NCCOCCOCCOCCNC(=O)OC4CC/C=C/CCC4)cc3)c2n1` (centres unmarked) [Compound K48], for which, under setting [1], the EC50 was 89 nM. Still for that read-out and setting: the result for `C=C(CN1CCC(Cn2c(=O)[nH]c3c(N)nc(O[C@@H](C)CCC)nc32)CC1)C(=O)NCCOCCOCCOCCOCCNC(=O)CCC(=O)N1Cc2ccccc2C#Cc2ccccc21` [Compound K49] reads 11 nM; that for `C=C(CN1CCC(Cn2c(=O)[nH]c3c(N)nc(OCCCC)nc32)CC1)C(=O)NCCOCCOCCOCCOCCNC(=O)CCC(=O)N1Cc2ccccc2C#Cc2ccccc21` [Compound K50], 23 nM.

Take `C=C(CN1CCC(Cn2c(=O)n(C(=O)NCCNC(=O)OCc3ccc(NC(=O)[C@H](CCCNC(N)=O)NC(=O)[C@@H](NC(=O)CCOCCOCCOCCOCCNC(=O)CCC(=O)N4Cc5ccccc5C#Cc5ccccc54)C(C)C)cc3)c3c(N)nc(O[C@@H](C)CCC)nc32)CC1)C(=O)OCC` [Compound K51]: the EC50 under setting [4] stood at 2 nM. With `C=C(CN1CCC(Cn2c(=O)n(C(=O)NCCNC(=O)OCc3ccc(NC(=O)[C@H](CCCNC(N)=O)NC(=O)[C@@H](NC(=O)CCOCCOCCOCCOCCNC(=O)CCC(=O)N4Cc5ccccc5C#Cc5ccccc54)C(C)C)cc3)c3c(N)nc(OCCCC)nc32)CC1)C(=O)OCC` [Compound K52], the EC50 under setting [4] came to 120 nM.

Take `C=C(CN1CCC(n2cc(Cn3c(=O)[nH]c4c(N)nc(O[C@@H](C)CCC)nc43)nn2)CC1)C(=O)NCCOCCOCCOCCOCCNC(=O)CCC(=O)N1Cc2ccccc2C#Cc2ccccc21` [Compound K54]: the EC50 under setting [1] turned out to be 18 nM. Regarding `C=C(CN1CCC(n2cc(Cn3c(=O)n(COC(=O)OCCOCCOCCOCCNC(=O)CCC(=O)N4Cc5ccccc5C#Cc5ccccc54)c4c(N)nc(O[C@@H](C)CCC)nc43)nn2)CC1)C(=O)OCC` [Compound K55], the EC50 under setting [4] worked out at 21 nM. In the case of `CCC[C@H](C)Oc1nc(N)c2c(n1)n(CC1CCN(C(=O)/C=C/C(=O)c3ccc(OC)cc3)CC1)c(=O)n2C(=O)NCCNC(=O)OCc1ccc(NC(=O)[C@H](CCCNC(N)=O)NC(=O)[C@@H](NC(=O)CCOCCOCCOCCOCCNC(=O)CCC(=O)N2Cc3ccccc3C#Cc3ccccc32)C(C)C)cc1` [Compound K57], the EC50 under setting [4] is 3 nM. The same measure, in the same setting: the result for `CCCCOc1nc(N)c2c(n1)n(CC1CCN(C(=O)/C=C/C(=O)c3ccc(OC)cc3)CC1)c(=O)n2C(=O)NCCNC(=O)OCc1ccc(NC(=O)[C@H](CCCNC(N)=O)NC(=O)[C@@H](NC(=O)CCOCCOCCOCCOCCNC(=O)CCC(=O)N2Cc3ccccc3C#Cc3ccccc32)C(C)C)cc1` [Compound K58] reads 9 nM; that for `C=C(CC)C(=O)c1ccc(OCC(=O)NCc2ccc(Cn3c(=O)n(COC(=O)OCc4ccc(NC(=O)[C@H](C)NC(=O)[C@@H](NC(=O)CCOCCOCCOCCOCCNC(=O)CCC(=O)N5Cc6ccccc6C#Cc6ccccc65)C(C)C)cc4)c4c(N)nc(OCCOC)nc43)cc2)c(Cl)c1Cl` [Compound K60], 90 nM. `C=C(CN1CCN(C(=O)n2c(=O)n(CCCc3cn(CCOCCOCCOCC(=O)OCC)nn3)c3nc(OCCCC)nc(N)c32)CC1)C(=O)NCCOCCOCCOCCOCCNC(=O)CCC(=O)N1Cc2ccccc2C#Cc2ccccc21` [Compound K61]: under setting [3], the EC50 is 2 nM. On to `C=C(CN(C[C@H](C)c1ccc(-c2c(O)cc(C)c3[nH]c(=O)c4sccc4c23)cc1)C(=O)OCc1ccc(NC(=O)[C@H](CCCNC(N)=O)NC(=O)[C@@H](NC(=O)CCOCCOCCOCCOCCN2C(=O)C=CC2=O)C(C)C)cc1)C(=O)N1CCC(n2cc(Cn3c(=O)n(C(=O)N4CCN(C)CC4)c4c(N)nc(OCCCC)nc43)nn2)CC1` [Compound K62], for which, under setting [5], the EC50 worked out at 10 nM.

With `CCC[C@H](C)Oc1nc(N)c2c(n1)n(CC1CC[N+]([O-])(CCO)CC1)c(=O)n2C(=O)NCCNC(=O)OCc1ccc(NC(=O)[C@H](CCCNC(N)=O)NC(=O)[C@@H](NC(=O)CCOCCOCCOCCOCCNC(=O)CCC(=O)N2Cc3ccccc3C#Cc3ccccc32)C(C)C)cc1` (some centres unmarked) [Compound K63], the EC50 under setting [5] was 80 nM.

In the case of `C=C(CN(CCCCc1cn(CCOCCOCCOCCn2cc(Cn3c(=O)[nH]c4c(N)nc(OCCCC)nc43)nn2)nn1)C[C@H](C)c1ccc(-c2c(O)cc(C)c3[nH]c(=O)c4sccc4c23)cc1)C(=O)NCCCCCCNC(=O)[C@@H](CCCCn1cc(COCCOCCOCCN=C=S)nn1)NC(=O)CCC(=O)NCc1ccc(Cn2c(=O)[nH]c3c(N)nc(OCCOC)nc32)cc1` [Compound K64], the EC50 under setting [1] was 10 nM. Turning to `C=CCNC(=S)NCC(=O)n1c(=O)n(Cc2ccc(CNC(=O)CCc3cn(CCOCCOCCOCCNC(=O)CCN4C(=O)C=CC4=O)nn3)cc2)c2nc(OCCOC)nc(N)c21` [Compound K67], under setting [2], the EC50 came out at 260 nM. As to `C#CCn1c(=O)[nH]c2c(N)nc(OCCCC)nc21` [GY100, reference compound], under setting [1], the EC50 amounted to 110 nM.

Take `C#CCCCn1c(=O)[nH]c2c(N)nc(OCCCC)nc21` [GY121, reference compound]: the EC50 under setting [1] came out at 50 nM. Take `CCCCOc1nc(N)c2nc(O)n(Cc3cn(CCOCCOCCOCCN=[N+]=[N-])nn3)c2n1` [GY155, reference compound]: under “no pretreatment marked”, the EC50 is 330 nM.

Turning to `CCC[C@H](C)Oc1nc(N)c2[nH]c(=O)n(Cc3cn(C4CCNCC4)nn3)c2n1` [GY228], the EC50 under setting [1] was 54 nM. For `C=C(CN1CCC(n2cc(Cn3c(=O)[nH]c4c(N)nc(O[C@@H](C)CCC)nc43)nn2)CC1)C(=O)OCC` [GY229], under setting [1], the EC50 was 28 nM. Same read-out and setting: the result for `C=C(CN1CCC(n2cc(Cn3c(=O)[nH]c4c(N)nc(O[C@@H](C)CCC)nc43)nn2)CC1)C(=O)O` [GY300] reads 31 nM; that for `CCCCOc1nc(N)c2[nH]c(=O)n(CCCc3cn(CCOCCOCCOCC(=O)OCC)nn3)c2n1` [GY1401], 2 nM. On to `CCCCOc1nc(N)c2[nH]c(=O)n(Cc3ccc(NC(=S)Nc4sc5c(c4C(=O)OCC)CCCC5)cc3)c2n1` [KJ005], for which the EC50 under setting [1] amounted to 370 nM.

Take `CCCCOc1nc(N)c2[nH]c(=O)n(Cc3ccc(NC(=S)Nc4sc5c(c4C(=O)O)CCCC5)cc3)c2n1` [KJ006]: the EC50 under setting [1] was determined as 290 nM. Consider `CCC[C@H](C)Oc1nc(N)c2[nH]c(=O)n(CC3CCNCC3)c2n1` [KJ-1b, reference compound], for which the EC50 under setting [1] was 18 nM.

Turning to `CCC[C@H](C)Oc1nc(N)c2[nH]c(=O)n(CC3CCN(CCO)CC3)c2n1` [KJ-3b, reference compound], under setting [1], the EC50 turned out to be 210 nM. As to `CCC[C@H](C)Oc1nc(N)c2[nH]c(=O)n(CC3CC[N+]([O-])(CCO)CC3)c2n1` (some centres unmarked) [KJ-3b-O], the EC50 under setting [1] was 90 nM. On to `COCCOc1nc(N)c2[nH]c(=O)n(Cc3ccc(CNC(=O)CCc4cn(CCOCCOCCOCCNC(=O)CCN5C(=O)C=CC5=O)nn4)cc3)c2n1` [KJ-008], for which the EC50 under setting [1] is 7 nM.
